Earlier results as cited in paper PMC2363746, “Phase I dose-escalation and pharmacokinetic study of a novel folate analogue AG2034” (British Journal of Cancer, 2001).

SMILES: Nc1nc2c(c(=O)[nH]1)C[C@@H](CCc1ccc(C(=O)N[C@@H](CCC(=O)O)C(=O)O)cc1)CN2 [lometrexol, (6R)-5,10-dideazatetrahydrofolate]
- Unexpected toxicity in phase I studies (in vivo): myelosuppression and mucositis
- Antitumour activity in phase I studies (ref Ray et al, 1993): objective antitumour activity
